Test results published in patent publication US20180077929A1, “METHODS AND SYSTEMS FOR TREATING MEDICAL DEVICES AND FLUIDS” (priority 2016, published 2018).
Marks after values point to notes of the source that are not given here.

Test: Kinetics of removal of LPS with different agitation techniques and stearate salts
Assay type: biochemical
Conditions: for Endotoxin Detected: 5 mL SRW, baseline 1,502 EU; for Percent (%) Removed: SRW baseline 1,502 EU
Description: 5 mL of SRW was added to each of the tubes. Each solution was tested for endotoxin removal after agitation based on with sonication, vortexing, or test tube rolling. Sonication samples were sonicated at each indicated time interval for 30 seconds at a magnitude of 30. Vortex samples were vortexed at each indicated time interval for 30 seconds at 2500 RPM. Rolling samples were constantly rolling at 10 rpm. The samples were tested on the MCS for endotoxin at 1 minute, 20 minutes, 40 minutes, 60 minutes, and 80 minutes.

Compound | Endotoxin Detected (Rolling, 1 minute) | Percent (%) Removed (Rolling, 1 minute) | Endotoxin Detected (Rolling, 20 minutes) | Percent (%) Removed (Rolling, 20 minutes) | Endotoxin Detected (Rolling, 40 minutes) | Percent (%) Removed (Rolling, 40 minutes) | Endotoxin Detected (Rolling, 60 minutes) | Percent (%) Removed (Rolling, 60 minutes) | Endotoxin Detected (Rolling, 80 minutes) | Percent (%) Removed (Rolling, 80 minutes) | Endotoxin Detected (Sonication, 1 minute) | Percent (%) Removed (Sonication, 1 minute) | Endotoxin Detected (Sonication, 20 minutes) | Percent (%) Removed (Sonication, 20 minutes) | Endotoxin Detected (Sonication, 40 minutes) | Percent (%) Removed (Sonication, 40 minutes) | Endotoxin Detected (Sonication, 60 minutes) | Percent (%) Removed (Sonication, 60 minutes) | Endotoxin Detected (Sonication, 80 minutes) | Percent (%) Removed (Sonication, 80 minutes) | other results
Magnesium Stearate | 1,060 EU | 29.4% | 1,120 EU | 25.4% | 1,060 EU | 29.4% | 1,120 EU | 25.4% | 1,190 EU | 20.8% | 743 EU | 50.5% | 716 EU | 52.3% | 824 EU | 45.1% | 884 EU | 41.1% | 703 EU | 53.2% | Endotoxin Detected (Vortexing, 1 minute): 884 EU; Percent (%) Removed (Vortexing, 1 minute): 41.1%; Endotoxin Detected (Vortexing, 20 minutes): 1,000 EU; Percent (%) Removed (Vortexing, 20 minutes): 33.4%; Endotoxin Detected (Vortexing, 40 minutes): 901 EU; Percent (%) Removed (Vortexing, 40 minutes): 40%; Endotoxin Detected (Vortexing, 60 minutes): 958 EU; Percent (%) Removed (Vortexing, 60 minutes): 36.2%; Endotoxin Detected (Vortexing, 80 minutes): 1,060 EU; Percent (%) Removed (Vortexing, 80 minutes): 29.4%
CCCCCCCCCCCCCCCCCC(=O)[O-].[Al+3].[OH-].[OH-] [Aluminum Monostearate] | 221* EU | 85.3% | 1,260 EU | 16.1% | 1,240 EU | 17.4% | 672 EU | 55.3% | 1,220 EU | 18.8% | 626 EU | 58.3% | 406 EU | 73% | 375 EU | 75% | 434 EU | 71.1% | 291 EU | 80.6% | Endotoxin Detected (Vortexing, 1 minute): 817 EU; Percent (%) Removed (Vortexing, 1 minute): 45.6%; Endotoxin Detected (Vortexing, 20 minutes): 849 EU; Percent (%) Removed (Vortexing, 20 minutes): 43.5%; Endotoxin Detected (Vortexing, 40 minutes): 786 EU; Percent (%) Removed (Vortexing, 40 minutes): 47.7%; Endotoxin Detected (Vortexing, 60 minutes): 801 EU; Percent (%) Removed (Vortexing, 60 minutes): 46.7%; Endotoxin Detected (Vortexing, 80 minutes): 757 EU; Percent (%) Removed (Vortexing, 80 minutes): 49.6%
